This note sets out measurements from publication PMC2951486 (Journal of Alzheimer's disease : JAD, 2010).

Structures are written as SMILES.

Series [1] has as its target heparin-induced tau filaments (HITF) (Homo sapiens, UniProt P10636). Kind of series: Inhibition assay, displacement of [3H]-AST from HITF. The conditions noted are these: inhibition of [3H]-AST binding; Ki values only in Fig. 2E. A general note: In a radioligand displacement assay an active substance lowers the binding of a labelled ligand.
The subject of series [2] is AD-PHF immobilized on CM5 sensor chip. In words: Surface plasmon resonance on immobilized AD-PHFs. It counts as binding, human. The following applies: SPR, AD-PHFs versus aggregated amyloid. (In general: SPR reads the build-up and loss of mass on a sensor chip optically.)
In another series the target is AD-PHF (Homo sapiens, UniProt P10636). In words: Double staining immunofluorescence of AD-PHFs with PHF-1 antibody and LNS. The following applies: LNS 0.1 %.
Series [3] deals with synthetic Aβ peptide (Aβ1–42) aggregates. In words: Scatchard analysis of [3H]-AST binding to Aβ peptide aggregates. The conditions noted are these: amyloid aggregates.
The target in the next series is AD-PHFs (Homo sapiens, UniProt P10636). Kind of series: Inhibition assay, displacement of [3H]-AST from AD-PHFs. The conditions noted are these: inhibition of [3H]-AST binding; Ki values only in Fig. 2E.
Series [4] in a line: Parallel artificial membrane permeability assay. The conditions noted are these: PAMPA, pH 7.4. (PAMPA measures passive passage across an artificial lipid membrane.)

Sequence of AD-PHF (P10636 623-758 limits assumed): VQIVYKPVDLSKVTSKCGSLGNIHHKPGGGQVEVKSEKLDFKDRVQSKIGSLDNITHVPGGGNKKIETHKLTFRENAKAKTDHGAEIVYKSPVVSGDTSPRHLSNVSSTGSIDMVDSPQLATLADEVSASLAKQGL
Sequence of AD-PHFs (P10636 623-758 limits assumed): as above
Sequence of heparin-induced tau filaments (HITF) (P10636 1-441 isoform P10636-8): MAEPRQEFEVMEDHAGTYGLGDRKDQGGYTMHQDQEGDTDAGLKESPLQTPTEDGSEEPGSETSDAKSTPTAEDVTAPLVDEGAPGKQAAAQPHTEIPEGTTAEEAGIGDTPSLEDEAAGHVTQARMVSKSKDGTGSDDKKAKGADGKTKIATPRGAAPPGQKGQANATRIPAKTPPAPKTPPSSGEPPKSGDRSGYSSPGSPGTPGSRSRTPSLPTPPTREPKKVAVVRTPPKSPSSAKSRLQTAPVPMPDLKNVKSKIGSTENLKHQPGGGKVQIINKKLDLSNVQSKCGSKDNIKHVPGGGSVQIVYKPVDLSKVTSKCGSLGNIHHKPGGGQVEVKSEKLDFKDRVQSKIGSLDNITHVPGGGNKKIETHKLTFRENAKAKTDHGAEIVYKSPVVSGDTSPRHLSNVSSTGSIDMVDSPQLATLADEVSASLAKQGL

In the case of `Cc1c(OCC(F)(F)F)ccnc1C[S+]([O-])c1nc2ccccc2[nH]1` (stereo not shown) [LNS, lansoprazole], the “affinity for HITF (relative Ki within the series)” value in series [1] was “highest affinity for HITF”. Further, in series [2], the “response curves (RU) on AD-PHFs surface compared to amyloid surface” value is recorded as “at least five times higher”. Besides, at AD-PHF, the “staining of AD-PHF compared with PHF-1 immunostaining” value was “colocalization of the signals from LNS and PHF-1 mAb”.

As to `COc1ccc(CCN2CCC(Nc3nc4ccccc4n3Cc3ccc(F)cc3)CC2)cc1` [AST, astemizole], the “ratio Bmax/Kd” value in series [3] is 0.06. In addition, the “affinity for AD-PHFs (relative Ki within the series)” value at AD-PHFs is “highest affinity for AD-PHFs”. Besides, the “response curves (RU) on AD-PHFs surface compared to amyloid surface” value in series [2] is “at least five times higher”. In series [4], this molecule returned a Papp at 16 h of 145 ×10⁻⁶ cm/s.

Broadly, the Papp is a coefficient for how fast a substance crosses the barrier. A higher Papp goes with ready permeation.
